From US6921665B2, “Selective antibody targeting of undifferentiated stem cells” (Roslin Institute (Edinburgh), priority 2001, dated 2005)

Experiments:
[1] = test system: Undifferentiated H1 cells; experiment: Total cell number of undifferentiated H1 hES cells by flow cytometry after TPAC vector and/or GCV; format: cell-based, human; settings: GCV alone, 30 μM
Protocol: (§1) Undifferentiated H1 cells were plated into 24 well plates (1 confluent well of a 6 well plate split into 24 wells of a 24 well plate). After 48 h, some wells were infected with the TPAC vector at an MOI of 30 or 100. Four h after addition of the viral vector, medium was exchanged for new mouse embryonic fibroblast conditioned medium (mEF-CM); some wells received medium supplemented with 30 μM ganciclovir (GCV). Cells exposed to GCV were re-fed with mEF-CM containing 30 μM GCV daily for 4 days. On days 2,3, and 4 after the initiation of GCV treatment, wells were harvested and analyzed by flow cytometry to assess changes in 1) total cell number and 2) cell viability (measured by PI exclusion).

[2] = test system: Undifferentiated H1 cells; experiment: Cell viability (PI exclusion, cells in ES gate) of H1 hES cells after TPAC vector and/or GCV; format: cell-based, human; settings: GCV alone
Protocol: as §1

[3] = test system: TPAC vector treated hES cells; experiment: Titration of GCV in TPAC vector treated hES cells; format: cell-based, human; settings: pGRN376 MOI 30; GCV 5-40 μM tested; day 2
Protocol: Undifferentiated Hi cells were plated into 24 well plates (1 confluent well of a 6 well plate split into 24 wells of a 24 well plate). After 48 h, some wells were infected with pGRN376 at an MOI of 30. Four h after addition of the viral vector, medium was exchanged for new mEF-CM; some wells received medium supplemented with 5, 10, 20, 30, or 40 μM ganciclovir (GCV). Cells exposed to GCV were re-fed with mEF-CM containing GCV daily for 2 days. On day 2 after the initiation of GCV treatment, wells were harvested and analyzed by flow cytometry to assess changes in total cell number, and cell viability (measured by PI exclusion).

hES lines H1 and H7 = experiment: Comparison of different hES lines, total cell number after pGRN376 plus GCV; format: cell-based, human; settings: two hES lines
Protocol: Undifferentiated hES of lines designated Hi and H7 cells were plated into 24 well plates (1 confluent well of a 6 well plate split into 24 wells of a 24 well plate). […] Four h after addition of the viral vector, medium was exchanged for new mEF-CM; some wells received medium supplemented with 20 μM GCV. Cells exposed to GCV were re-fed with mEF-CM containing GCV daily for 3 days. On day 4 after the initiation of GCV treatment, wells were harvested and analyzed by flow cytometry to assess changes in total cell number.

H9 cell line = experiment: Sensitivity of the H9 line to GCV after TPAC vector treatment; format: cell-based, human; settings: subsequent studies
From the text: Thus, different hES cell lines respond to the TPAC vector.

[4] = test system: tumor lines 143B, 293, HT1080, Bxpc-3', DAOY and NIH3T3; experiment: Ganciclovir treatment in vitro of tk/+ tumor lines carrying hTERT promoter/tk constructs; format: cell-based; settings: cells carrying pGRN266, pGRN267 or pGRN268
Protocol: (§2) The ability of the hTERT promoter to specifically drive the expression of the thymidine kinase (tk) gene in tumor cells was tested using a variety of constructs: One construct, designated pGRN266, contains an EcoRI-FseI PCR fragment with the tk gene cloned into the EcoRI-FseI sites of pGRN263. pGRN263, containing approximately 2.5 kb of hTERT promoter sequence, is similar to pGRN150, but contains a neomycin gene as selection marker. pGRN267 contains an EcoRI-FseI PCR fragment with the tk gene cloned into the EcoRI-FseI sites of pGRN264. pGRN264, containing approximately 210 bp of hTERT promoter sequence, is similar to pGRN176, but contains a neomycin gene as selection marker. pGRN268 contains an EcoRI-XbaI PCR fragment with the tk gene cloned into the EcoRI-XbaI (unmethylated) sites of pGRN265. pGRN265, containing approximately 90 bp of hTERT promoter sequence, is similar to pGRN175, but contains a neomycin gene as selection marker.
(§3) These hTERT promoter/tk constructs, pGRN266, pGRN267 and pGRN268, were re-introduced into mammalian cells and tk/+stable clones (and/or mass populations) were selected. […] Ganciclovir treatment had no effect on normal BJ cells.

normal BJ cells = experiment: Ganciclovir treatment in vitro of normal cells carrying hTERT promoter/tk constructs; format: cell-based
Protocol: as §2, §3

hTERT expression = experiment: RT-PCR for hTERT expression after differentiation factors; format: cell-based, human; settings: after exposure of hES cells to the factor
Protocol: For radioactive relative quantification of individual gene products, QuantumRNA™ Alternate18S Internal Standard primers (Ambion, Austin Tex., USA) were employed according to the manufacturer's instructions. Briefly, the linear range of amplification of a particular primer pair was determined, then coamplified with the appropriate mixture of alternate18S primers:competimers to yield PCR products with coinciding linear ranges. Before addition of AmpliTaq™ (Roche) to PCR reactions, the enzyme was pre-incubated with the TaqStar™ antibody (ProMega) according to manufacturer's instructions. Radioactive PCR reactions were analyzed on 5% non-denaturing polyacrylamide gels, dried, and exposed to phosphoimage screens (Molecular Dynamics) for 1 hour. Screens were scanned with a Molecular Dynamics Storm 860 and band intensities were quantified using ImageQuant™ software. Results are expressed as the ratio of radioactivity incorporated into the hTERT or OCT-4 band, standardized to the radioactivity incorporated into the 18s band.
Primers and amplification conditions for particular markers are as follows. […]

hES cells = experiment: Neuron formation from hES cells with neurotrophin growth factors (β-tubulin positive cell count); format: cell-based, human; settings: 7 days of differentiation
Protocol: The effect of several members of the neurotrophin growth factor family was examined. hES cells were differentiated by harvesting with collagenase, dissociating, and reseeding onto poly-ornithine coated cover slips. The cells were plated into DMEM/F12+N2+10% FBS overnight. The following day, the serum was removed from the medium and replaced with 10 ng/mL human bFGF and the growth factor being tested. After 24 hours, bFGF was removed from the medium. These cultures were fed every other day. They were fixed after 7 days of differentiation and immunostained for analysis. The number of neurons was evaluated by counting cells positive for β-tubulin. Cultures maintained in the presence of 10 ng/mL brain derived neurotrophic factor (BDNF) formed approximately 3-fold more neurons than the control cultures. Cultures maintained in neurotrophin-3 (1 ng/mL) formed approximately 2-fold more neurons than control cultures.

Nc1nc(O)c2ncn(COC(CO)CO)c2n1 [GCV, ganciclovir]
cells as percent of the control wells ([1]; day 2): approximately 55% | cells as percent of the control wells ([1]; day 4): 40% | cells in ES gate ([2]; day 2 (control 85%)): 75% | cells in ES gate ([2]; day 3 (control 82%)): 68% | cells in ES gate ([2]; day 4 (control 65%)): 50% | optimal GCV concentration [3]: ~20 µM | sensitivity to GCV after treatment with the TPAC vector (hES lines H1 and H7): sensitive | sensitivity to GCV after TPAC vector treatment (H9 cell line): highly sensitive | effect of ganciclovir on tk/+ cells [4]: selective destruction of all tumor lines tested | effect of ganciclovir (normal BJ cells): no effect

C[S+](C)[O-] [dimethyl sulfoxide]
expression of hTERT (hTERT expression): markedly decreased

B1: neurotrophin-3: member of the neurotrophin growth factor family (protein, UniProt P20783 139-257, looked up)
Neurotrophin-3: YAEHKSHRGEYSVCDSESLWVTDKSSAIDIRGHQVTVLGEIKTGNSPVKQYFYETRCKEARPVKNGCRGIDDKHWNSQCKTSQTYVRALTSENNKLVGWRWIRIDTSCVCALSRKIGRT
neurons formed relative to control cultures (hES cells; 1 ng/mL): approximately 2 fold

B2: BDNF: brain derived neurotrophic factor, member of the neurotrophin growth factor family (protein, UniProt P23560 19-247, looked up)
Neurotrophic factor BDNF …: APMKEANIRGQGGLAYPGVRTHGTLESVNGPKAGSRGLTSLADTFEHVIEELLDEDQKVRPNEENNKDADLYTSRVMLSSQVPLEPPLLFLLEEYKNYLDAANMSMRVRRHSDPARRGELSVCDSISEWVTAADKKTAVDMSGGTVTVLEKVPVSKGQLKQYFYETKCNPMGYTKEGCRGIDKRHWNSQCRTTQSYVRALTMDSKKRIGWRFIRIDTSCVCTLTIKRGR
neurons formed relative to control cultures (hES cells; 10 ng/mL): approximately 3 fold
